Publication PMC10784468 (Nature Communications, 2024)
Positions of bridges follow the written chain, without caps; N, C: chain ends. Residues, ends and D or L forms follow the SMILES beside them. *: point of attachment. X1 = O=C(O)c1ccc(-c2c3nc(c(-c4ccc(C(=O)O)cc4)c4ccc([nH]4)c(-c4ccc(C(=O)*)cc4)c4nc(c(-c5ccc(C(=O)O)cc5)c5ccc2[nH]5)C=C4)C=C3)cc1; X2 = O=C(O)C/C(=C/C(=O)*)C(=O)O

Tests used:
[1] = Critical aggregation concentration (pyrene probe, I338/I335); type: physicochemical; conditions: for I338/I335 (pyrene): pyrene 6 μM, emission 393 nm; for critical aggregation concentration (CAC): pyrene probe, I338/I335, PBS 0.01 M, pH 7.4
Experimental: The CACs were determined using pyrene as a fluorescent probe. In brief, 50 μL of pyrene solution in acetone (480 μM) was added to a 5 mL centrifuge tube, followed by adding a series of peptide-porphyrin conjugate solutions with different concentrations, and the tube was kept overnight to evaporate the acetone completely, the concentration of pyrene being fixed at 6 μM at last. The excitation spectra of the solutions were recorded with the emission wavelength fixing at 393 nm, and the intensity ratio (I338/I335) was calculated as a function of the concentration. The CAC was determined based on the intersection point at low concentration on the plot.

EJ cells = assay: Intracellular LPO content (MDA kit); type: cell-based
Experimental: Initially, EJ cells (5 × 10^5) were cultured in 6-well plate with a CO2 incubator overnight at 37 °C. […] Next, EJ cells were collected and washed with PBS for 3 times. Afterwards, the cell lysates were collected by centrifugation at 8000 g for 10 min at 4 °C after lysed by freeze-thaw treatment. Finally, the LPO contents were measured by thiobarbituric acid (TBA) reaction with a Malondialdehyde (MDA) Assay Kit based on the manufacturer’s instructions.

GPX4 protein = assay: Microscale Thermophoresis (MST) ligand binding; conditions: for Fnorm (‰), MST original data: labelled GPX4
Experimental: Initially, GPX4 was labeled using Protein Labeling Kit RED-NHS according to the manufacturer’s instructions to investigate the binding affinity of Gi-F-CAA, Gi-F and NGi-F-CAA with GPX4 protein. Afterward, the labelled GPX4 protein was incubated with series of Gi-F-CAA, Gi-F and NGi-F-CAA concentration gradients. Finally, the prepared samples were loaded into silica capillaries and measured with Monolish NT.115. Apparent Kd represented the affinity of assemblies rather than a single molecule. Bovine serum albumin (BSA) was used as control for calculating the apparent binding affinity between Gi-F (nanoparticle) to GPX4 protein. Briefly, as the diameter of nanoparticle is proportional to the molecular weight, according to the reported bovine serum albumin (BSA) protein size and molecular weight (7.2 nm, 66.43 KDa), the molecular weight of Gi-F nanoparticle with an average 78 nm size can be calculated to be […]. The monomer amount Gi-F nanoparticle was calculated as […].

EJ tumor tissues [2] = assay: Tumor iron content detection (Prussian blue); type: in vivo, BALB/c nude mice; conditions: 8 mg/kg i.v.
Experimental: EJ tumor tissues were collected under euthanasia at the end of treatment and washed with PBS for 3 times. Afterwards, the DAB-enhanced Prussian blue iron staining was performed with Wuhan Servicebio Technology Co., Ltd.

EJ tumor tissues [3] = assay: Tumor ROS content detection; type: in vivo, BALB/c nude mice; conditions: 8 mg/kg i.v., versus PBS, Gi-F and Gi-F-SA
Experimental: EJ tumor tissues were collected under euthanasia at the end of treatment and washed with PBS for 3 times. Next, DCFH-DA fluorescence staining was carried out by Wuhan Servicebio Technology Co., Ltd.

Compound: CC(C)C[C@H](NC(=O)c1ccc(-c2c3nc(c(-c4ccc(C(=O)O)cc4)c4ccc([nH]4)c(-c4ccc(C(=O)O)cc4)c4nc(c(-c5ccc(C(=O)O)cc5)c5ccc2[nH]5)C=C4)C=C3)cc1)C(=O)N[C@@H](CCCCNC(=O)/C=C(/CC(=O)O)C(=O)O)C(=O)N[C@@H](CC(C)C)C(=O)N[C@@H](CCCCN)C(=O)N[C@@H](CC(C)C)C(=O)N[C@@H](CCCCNC(=O)/C=C(/CC(=O)O)C(=O)O)C(=O)NCC(=O)N[C@@H](C)C(=O)N[C@H]1CSSC[C@@H](C(=O)N2CCC[C@H]2C(=O)N[C@H](C(=O)O)C(C)C)NC(=O)[C@@H]2CCCN2C(=O)[C@H](Cc2ccc(O)cc2)NC(=O)[C@H](CC(C)C)NC(=O)[C@@H]2CCCN2C(=O)[C@H](CC(C)C)NC(=O)[C@H](Cc2c[nH]c3ccccc23)NC(=O)[C@H](CC(N)=O)NC1=O [Gi-F-CAA] (X1-LK(X2)LKLK(X2)GACNWLPLYPCPV-OH; disulfide 9-17; C-terminus assumed)
- I338/I335 (pyrene) ([1]; conjugate 0.97656 μM): 0.974
- I338/I335 (pyrene) ([1]; conjugate 1.95313 μM): 0.9716
- I338/I335 (pyrene) ([1]; conjugate 3.90625 μM): 0.9744
- I338/I335 (pyrene) ([1]; conjugate 7.8125 μM): 0.9774
- I338/I335 (pyrene) ([1]; conjugate 15.625 μM): 0.9762
- I338/I335 (pyrene) ([1]; conjugate 31.25 μM): 0.9729
- I338/I335 (pyrene) ([1]; conjugate 62.5 μM): 0.9783
- I338/I335 (pyrene) ([1]; conjugate 125 μM): 0.9903
- I338/I335 (pyrene) ([1]; conjugate 250 μM): 1.02
- I338/I335 (pyrene) ([1]; conjugate 500 μM): 1.0656
- I338/I335 (pyrene) ([1]; conjugate 1000 μM): 1.12
- critical aggregation concentration (CAC) [1]: 149.5 µM
- Relative MDA levels (EJ cells; pH=6.5, replicate #1): 4.36
- Relative MDA levels (EJ cells; pH=6.5, replicate #2): 4.44
- Relative MDA levels (EJ cells; pH=6.5, replicate #3): 4.68
- Relative MDA levels (EJ cells; pH=7.4, replicate #1): 1.72
- Relative MDA levels (EJ cells; pH=7.4, replicate #2): 1.84
- Relative MDA levels (EJ cells; pH=7.4, replicate #3): 2.24
- Fnorm (‰), MST original data (GPX4 protein; ligand concentration 3.05176e-8 (μM)): 933.824 ‰
- Fnorm (‰), MST original data (GPX4 protein; ligand concentration 6.10352e-8 (μM)): 930.278 ‰
- Fnorm (‰), MST original data (GPX4 protein; ligand concentration 1.2207e-7 (μM)): 933.334 ‰
- Fnorm (‰), MST original data (GPX4 protein; ligand concentration 2.44141e-7 (μM)): 933.054 ‰
- Fnorm (‰), MST original data (GPX4 protein; ligand concentration 4.88281e-7 (μM)): 933.313 ‰
- Fnorm (‰), MST original data (GPX4 protein; ligand concentration 9.76563e-7 (μM)): 936.876 ‰
- Fnorm (‰), MST original data (GPX4 protein; ligand concentration 1.95313e-6 (μM)): 940.785 ‰
- Fnorm (‰), MST original data (GPX4 protein; ligand concentration 3.90625e-6 (μM)): 940.492 ‰
- Fnorm (‰), MST original data (GPX4 protein; ligand concentration 7.8125e-6 (μM)): 946.829 ‰
- Fnorm (‰), MST original data (GPX4 protein; ligand concentration 1.5625e-5 (μM)): 943.797 ‰
- Fnorm (‰), MST original data (GPX4 protein; ligand concentration 3.125e-5 (μM)): 948.084 ‰
- Fnorm (‰), MST original data (GPX4 protein; ligand concentration 6.25e-5 (μM)): 945.991 ‰
- Fnorm (‰), MST original data (GPX4 protein; ligand concentration 0.000125 (μM)): 949.08 ‰
- Fnorm (‰), MST original data (GPX4 protein; ligand concentration 0.00025 (μM)): 946.188 ‰
- Fnorm (‰), MST original data (GPX4 protein; ligand concentration 0.0005 (μM)): 949.615 ‰
- Fnorm (‰), MST original data (GPX4 protein; ligand concentration 0.001 (μM)): 948.046 ‰
- iron levels of tumor tissues versus other groups (EJ tumor tissues [2]): substantially higher
- ROS levels of tumor tissues (EJ tumor tissues [3]): elevation

Compound: FeTCPP-LKLKLK(SA)GACNWLPLYPCPV (disulfide) [Gi-F-SA, control conjugate decorated with non-sensitive succinic anhydride (SA) moieties]
- Relative MDA levels (EJ cells; pH=7.4, replicate #1): 2.76
- Relative MDA levels (EJ cells; pH=7.4, replicate #2): 2.24
- Relative MDA levels (EJ cells; pH=7.4, replicate #3): 2

Compound: FeTCPP-LKLKLKGACNWLPLYPCPV (disulfide) [Gi-F]
- I338/I335 (pyrene) ([1]; conjugate 0.97656 μM): 0.9792
- I338/I335 (pyrene) ([1]; conjugate 1.95313 μM): 0.979
- I338/I335 (pyrene) ([1]; conjugate 3.90625 μM): 0.9785
- I338/I335 (pyrene) ([1]; conjugate 7.8125 μM): 0.9903
- I338/I335 (pyrene) ([1]; conjugate 15.625 μM): 1.011
- I338/I335 (pyrene) ([1]; conjugate 31.25 μM): 1.031
- I338/I335 (pyrene) ([1]; conjugate 62.5 μM): 1.099
- I338/I335 (pyrene) ([1]; conjugate 125 μM): 1.141
- I338/I335 (pyrene) ([1]; conjugate 250 μM): 1.203
- I338/I335 (pyrene) ([1]; conjugate 500 μM): 1.248
- I338/I335 (pyrene) ([1]; conjugate 1000 μM): 1.254
- critical aggregation concentration (CAC) [1]: 13.8 µM
- Fnorm (‰), MST original data (GPX4 protein; nanoparticle ligand concentration 3.07265e-11 (μM)): 857.598 ‰
- Fnorm (‰), MST original data (GPX4 protein; nanoparticle ligand concentration 6.14531e-11 (μM)): 848.131 ‰
- Fnorm (‰), MST original data (GPX4 protein; nanoparticle ligand concentration 1.22906e-10 (μM)): 859.494 ‰
- Fnorm (‰), MST original data (GPX4 protein; nanoparticle ligand concentration 2.45812e-10 (μM)): 850.692 ‰
- Fnorm (‰), MST original data (GPX4 protein; nanoparticle ligand concentration 4.91623e-10 (μM)): 861.283 ‰
- Fnorm (‰), MST original data (GPX4 protein; nanoparticle ligand concentration 9.8325e-10 (μM)): 853.275 ‰
- Fnorm (‰), MST original data (GPX4 protein; nanoparticle ligand concentration 1.9665e-9 (μM)): 865.165 ‰
- Fnorm (‰), MST original data (GPX4 protein; nanoparticle ligand concentration 3.933e-9 (μM)): 860.627 ‰
- Fnorm (‰), MST original data (GPX4 protein; nanoparticle ligand concentration 7.86601e-9 (μM)): 880.817 ‰
- Fnorm (‰), MST original data (GPX4 protein; nanoparticle ligand concentration 1.5732e-8 (μM)): 885.875 ‰
- Fnorm (‰), MST original data (GPX4 protein; nanoparticle ligand concentration 3.1464e-8 (μM)): 915.502 ‰
- Fnorm (‰), MST original data (GPX4 protein; nanoparticle ligand concentration 6.29279e-8 (μM)): 920.264 ‰
- Fnorm (‰), MST original data (GPX4 protein; nanoparticle ligand concentration 1.25856e-7 (μM)): 943.293 ‰
- Fnorm (‰), MST original data (GPX4 protein; nanoparticle ligand concentration 2.51712e-7 (μM)): 935.723 ‰
- Fnorm (‰), MST original data (GPX4 protein; nanoparticle ligand concentration 5.03423e-7 (μM)): 956.979 ‰
- Fnorm (‰), MST original data (GPX4 protein; nanoparticle ligand concentration 1.00685e-6 (μM)): 946.244 ‰
- increase of binding affinity to GPX4 versus Gi-F-CAA (GPX4 protein; ratio of MST Kd values): ~ 55 times
